Experimental data published in ChEMBL document CHEMBL4619715 (Bioorg Med Chem Lett, 2020).

Columns and labels:
[1] = Oral bioavailability in rhesus monkey; assay type: ADME, organism-based, Macaca mulatta; conditions: in vivo
[2] = Distribution coefficient, logD of compound; assay type: physicochemical; conditions: octanol/water
[3] = Oral bioavailability in rat; assay type: ADME, organism-based; conditions: in vivo
[4] = Solubility of the compound at pH 2; assay type: physicochemical; conditions: buffer
[5] = Solubility of the compound at pH 7; assay type: physicochemical; conditions: buffer

SMILES | bioavailability [1] | logD [2] | bioavailability [3] | solubility [4] | solubility [5]
NC(=O)c1cc(-c2ccc(F)cc2)c2ccc(CN3C(=O)CCC3=O)cc2n1 | > 99% | 2.1 | > 99% | – | –
CC[C@@](O)(c1cn(Cc2ccc3c(-c4ccc(F)cc4)cc(C(N)=O)nc3c2)nn1)C(F)(F)F | – | – | – | < 0.8 µM | < 0.8 µM
